Among the test systems are EKVX NSCLC; HCC-2998 colon; HOP-62 NSCLC; HOP-92 NSCLC; MALME-3M melanoma; NCI-H226 lung; NCI-H522 lung; OVCAR-5 ovarian; RPMI-8226 leukemia; OVCAR-4 ovarian.
Holding throughout (experiment): NCI-60 cell line screen, 48 h

These results are taken from PubChem BioAssay (NCI).

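Each compound was tested at five concentrations against cells in 96-well plates for 48 hours. At the GI50, growth is halved. TGI is the concentration that stops growth completely.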 Some results are limits rather than exact numbers.

As to `O=C(c1cccs1)c1c(C(F)(F)F)n([O-])c2cc(C(F)(F)F)ccc2[n+]1=O`, the GI50 with EKVX NSCLC was 0.251 µM; in the assay on HCC-2998 colon it was 0.293 µM; in the assay on HOP-62 NSCLC it was 0.174 µM; in the assay with HOP-92 NSCLC it was 0.172 µM; with MALME-3M melanoma it was 0.347 µM; with NCI-H226 lung, 0.647 µM. The GI50 with NCI-H522 lung was 0.294 µM; in the assay on OVCAR-5 ovarian it was 0.432 µM; in the assay with RPMI-8226 leukemia, 0.211 µM. For the same compound, the TGI was 0.625 µM in the assay with EKVX NSCLC; 0.85 µM in the assay on HCC-2998 colon; 0.337 µM in the assay with HOP-62 NSCLC; 0.342 µM with HOP-92 NSCLC; 0.772 µM in the assay with MALME-3M melanoma; 1.71 µM in the assay on NCI-H226 lung. The TGI in the assay with NCI-H522 lung is 0.738 µM; in the assay on OVCAR-5 ovarian, 1.37 µM; in the assay on RPMI-8226 leukemia it was 0.59 µM.
On to `O=C(/C=C/c1ccc2c(c1)OCO2)c1ccccc1`, for which the GI50 was 15.1 µM in the assay with EKVX NSCLC; 16 µM in the assay on HCC-2998 colon; 23.9 µM in the assay on HOP-62 NSCLC; 15.4 µM in the assay on HOP-92 NSCLC; 13.9 µM in the assay on MALME-3M melanoma; 23.4 µM with NCI-H226 lung. Moreover, the GI50 in the assay on OVCAR-4 ovarian is 24.8 µM; with OVCAR-5 ovarian, 16.2 µM; with RPMI-8226 leukemia it was 4.84 µM. Also, the TGI was found to be 31.1 µM in the assay on EKVX NSCLC; 30.2 µM with HCC-2998 colon; 80.9 µM with HOP-62 NSCLC; 41.3 µM with HOP-92 NSCLC; 37.9 µM with MALME-3M melanoma; 78.5 µM with NCI-H226 lung. Moreover, the TGI in the assay with OVCAR-4 ovarian is greater than 100 µM; with OVCAR-5 ovarian, 36.8 µM; in the assay with RPMI-8226 leukemia it was greater than 100 µM.
With `O=C(Nc1cccc(-c2nc3ccccc3[nH]2)c1)c1cccc(NC(=O)c2ccco2)c1`, the GI50 was 10 µM in the assay on HCC-2998 colon; 2.06 µM in the assay on HOP-62 NSCLC; 2.63 µM in the assay with HOP-92 NSCLC; 2.11 µM with MALME-3M melanoma; 2.72 µM in the assay on NCI-H226 lung; 2.5 µM in the assay with NCI-H522 lung. Besides, the GI50 in the assay with OVCAR-4 ovarian is 1.73 µM; in the assay with OVCAR-5 ovarian, 3.1 µM; in the assay with RPMI-8226 leukemia it was 2.33 µM. Moreover, the TGI was determined as 21.5 µM in the assay with HCC-2998 colon; 4.3 µM in the assay with HOP-62 NSCLC; 5.89 µM in the assay on HOP-92 NSCLC; 4.34 µM in the assay with MALME-3M melanoma; 15.9 µM with NCI-H226 lung; 6.41 µM in the assay on NCI-H522 lung. Further, the TGI in the assay on OVCAR-4 ovarian amounted to 3.1 µM; in the assay on OVCAR-5 ovarian, 11.1 µM; in the assay with RPMI-8226 leukemia it was 8.16 µM.
Regarding `CO/C=C/c1cc2c(cc1C(OC)OC)OCO2`, the TGI in the assay with EKVX NSCLC is greater than 100 µM; in the assay on HCC-2998 colon it was greater than 100 µM; with HOP-62 NSCLC, 75 µM; in the assay on HOP-92 NSCLC, greater than 100 µM; in the assay on MALME-3M melanoma, greater than 100 µM; in the assay with NCI-H226 lung, greater than 100 µM. Moreover, the TGI with NCI-H522 lung, with OVCAR-4 ovarian and with OVCAR-5 ovarian was greater than 100 µM each time.
With `N#C/C(=C\c1ccc(Br)cc1)n1nnc2cc(F)c(F)cc21`, the GI50 in the assay on HCC-2998 colon is 2.02 µM; in the assay with HOP-62 NSCLC, 1.93 µM; in the assay with HOP-92 NSCLC, 1.57 µM; in the assay with MALME-3M melanoma it was 1.59 µM; with NCI-H226 lung it was 2.17 µM; in the assay with NCI-H522 lung it was 1.35 µM. The values for the GI50 in the assay on OVCAR-4 ovarian, in the assay with OVCAR-5 ovarian and with RPMI-8226 leukemia were 1.95 µM, 1.85 µM and 2.01 µM, respectively. For the same compound, the TGI in the assay on HCC-2998 colon was determined as 3.67 µM; with HOP-62 NSCLC it was 4.27 µM; in the assay with HOP-92 NSCLC, 4.15 µM; in the assay with MALME-3M melanoma it was 3.12 µM; in the assay with NCI-H226 lung it was 4.99 µM; in the assay on NCI-H522 lung it was 3.25 µM. Also, the TGI in the assay with OVCAR-4 ovarian was 6.09 µM; in the assay with OVCAR-5 ovarian it was 3.57 µM; in the assay on RPMI-8226 leukemia it was 4.76 µM.
As to `Cc1cccc(Oc2ccc(Nc3ncnc4ccc(NC(=O)CN5CCN(C)CC5)cc34)cc2Cl)c1`, the GI50 is 1.12 µM in the assay with EKVX NSCLC; 1.58 µM with HCC-2998 colon; 1.17 µM with HOP-92 NSCLC; 1.59 µM with MALME-3M melanoma; 1.72 µM in the assay on OVCAR-4 ovarian; 1.66 µM in the assay on OVCAR-5 ovarian. Moreover, in the assay with RPMI-8226 leukemia, the GI50 was 1.76 µM. The TGI was 2.64 µM in the assay on EKVX NSCLC; 3.04 µM in the assay with HCC-2998 colon; 2.59 µM in the assay on HOP-92 NSCLC; 3.16 µM in the assay with MALME-3M melanoma; 4.3 µM in the assay with OVCAR-4 ovarian; 3.2 µM in the assay on OVCAR-5 ovarian. This compound registered a TGI in the assay with RPMI-8226 leukemia of 4.39 µM.
For the compound `C/C=C/C/C=C/CCC(=O)C1OC1C(N)=O` (centres undefined), the TGI amounted to 36.4 µM in the assay with EKVX NSCLC; 31.1 µM with HCC-2998 colon; 15.8 µM in the assay on HOP-62 NSCLC; 29.4 µM in the assay with HOP-92 NSCLC; 32.9 µM in the assay on MALME-3M melanoma; 25.8 µM in the assay with NCI-H522 lung. Moreover, the TGI in the assay with OVCAR-4 ovarian was determined as 23.8 µM; in the assay with OVCAR-5 ovarian, 32.8 µM.
With `CCC(=O)Nc1ccc2c(c1)CN1C(=O)c3ccccc3C1=N2`, the GI50 in the assay with HCC-2998 colon, with HOP-62 NSCLC, with HOP-92 NSCLC, in the assay on MALME-3M melanoma, in the assay with NCI-H226 lung and in the assay on NCI-H522 lung was greater than 100 µM in each case. For the same compound, the GI50 in the assay with OVCAR-4 ovarian, in the assay with OVCAR-5 ovarian and in the assay on RPMI-8226 leukemia was greater than 100 µM in each case. Also, the TGI in the assay on HCC-2998 colon, with HOP-62 NSCLC, in the assay with HOP-92 NSCLC, with MALME-3M melanoma, with NCI-H226 lung and in the assay with NCI-H522 lung was greater than 100 µM each time. For the same compound, the TGI in the assay on OVCAR-4 ovarian, with OVCAR-5 ovarian and with RPMI-8226 leukemia was greater than 100 µM each time.
As to `COc1ccc(C(=O)c2ccc(OC)cc2OC)cc1`, the GI50 in the assay with EKVX NSCLC was 7.17 µM; in the assay on HCC-2998 colon it was 6.54 µM; with HOP-62 NSCLC, 2.6 µM; with HOP-92 NSCLC, 1.84 µM; with MALME-3M melanoma it was 5.83 µM; with NCI-H522 lung it was 1.06 µM. The GI50 in the assay on OVCAR-4 ovarian was 6.54 µM; in the assay on OVCAR-5 ovarian it was 8.79 µM; in the assay with RPMI-8226 leukemia, 3.18 µM. The TGI with EKVX NSCLC was greater than 100 µM; with HCC-2998 colon it was 41.3 µM; in the assay with HOP-62 NSCLC, greater than 100 µM; in the assay on HOP-92 NSCLC it was 53.9 µM; with MALME-3M melanoma, greater than 100 µM; in the assay on NCI-H522 lung, 4.38 µM. In addition, the TGI is greater than 100 µM in the assay with OVCAR-4 ovarian, greater than 100 µM in the assay on OVCAR-5 ovarian and 18.7 µM in the assay with RPMI-8226 leukemia.
